We go through 3 compounds from patent US20230248718A1, “PHARMACEUTICAL COMBINATION OF ANTISPASMODIC AND ANXIOLYTIC AGENT” (priority 2022, published 2023).

Usually half-life stands for the time in which the quantity being followed falls by half.

For series [1] the following is noted: cited from earlier work.
How the values of series [2] were obtained: Therefore, drug-interaction studies were undertaken by the inventors and the samples were evaluated for chemical stability.
For series [3] the following is noted: cited from earlier work. The source holds these as a separate data set.
The conditions of series [4]: oral, 80 mg strength IR tablets; cited from earlier work.

SMILES strings stand for the structures. Structures can show the parent of a compound that is named as a salt.

For the compound `CNC1=Nc2ccc(Cl)cc2C(c2ccccc2)=[N+]([O-])C1.Cl` [Chlordiazepoxide HCl, Chlordiazepoxide hydrochloride], the “plasma levels after administration is discontinued” value in series [1] (after discontinuation) was “decline slowly over a period of several days”. In series [1] (in vivo), the half-life was 24 to 48 h and the “time for peak blood levels to be reached” value is listed as “several hours”.
Consider `CCOc1ccc(/C=C2\NCCc3cc(OCC)c(OCC)cc32)cc1OCC` [Drotaverine HCl, Drotaverine hydrochloride], for which, in series [2], the “chemical stability / degradation in acidic environment” value is given as “best chemical stability”, the “degradation in basic conditions” value is “degrades significantly” and the “degradation in oxidative conditions / peroxide solution” value is reported as “degrades significantly”.
As to `CCOc1ccc(/C=C2\NCCc3cc(OCC)c(OCC)cc32)cc1OCC` [Drotaverine], the “oral LD50” value in series [3] was over 1000 mg/Kg body weight. Moreover, the “drug absorption from small intestine” value in series [4] was about 90%.
